Results from US12570642B2, “GLP-IR modulating compounds” (Gilead Sciences, Inc., priority 2021, dated 2026).

Biological target: GLP-1R (Homo sapiens, UniProt P43220)
Test: GLP-1R Activation - cAMP Assay
Assay type: cell-based
Conditions: cAMP increase in CHO cells stably expressing GLP-1R; each compound run on one of the two cAMP assays (Assay 1 or Assay 2, not specified)
In short: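 CHO cells stably expressing GLP-1R, plated at 1,000 cells/well overnight, then equilibrated 1 h in HBSS with 20 mM Hepes and 0.1% BSA. Agonist added as 10-point dose response for 30 min at 37 °C. cAMP measured by HTRF (Cisbio Gs Dynamic kit); EC50 from sigmoidal fit.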

Chain of GLP-1R (P43220 24-463): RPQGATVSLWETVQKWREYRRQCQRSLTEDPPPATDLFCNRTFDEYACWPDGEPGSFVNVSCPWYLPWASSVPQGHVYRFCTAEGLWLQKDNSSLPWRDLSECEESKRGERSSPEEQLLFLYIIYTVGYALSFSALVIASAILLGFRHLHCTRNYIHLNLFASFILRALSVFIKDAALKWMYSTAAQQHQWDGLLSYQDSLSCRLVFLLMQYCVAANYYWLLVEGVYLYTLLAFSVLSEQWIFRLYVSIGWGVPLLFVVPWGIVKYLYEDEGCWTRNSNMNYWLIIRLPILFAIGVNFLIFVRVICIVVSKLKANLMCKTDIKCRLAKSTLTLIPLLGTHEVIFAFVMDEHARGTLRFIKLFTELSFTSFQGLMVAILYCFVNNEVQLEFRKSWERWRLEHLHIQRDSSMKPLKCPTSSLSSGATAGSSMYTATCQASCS

Row | SMILES | EC50
1 | CC1(C)COC[C@H]1n1c(Cc2cc(F)c(-c3cccc(OCc4cc(F)c(C#N)cc4F)n3)cc2F)nc2ccc(C(=O)O)cc21 [Example 487, (S)-2-(4-(6-((4-cyano-2,5-difluorobenzyl)oxy)pyridin-2-yl)-2,5-difluorobenzyl)-1-(4,4-dimethyltetrahydrofuran-3-yl)-1H-benzo[d]imidazole-6-carboxylic acid] | 0.159 nM
2 | CC1(C)COC[C@H]1n1c(Cc2cc(F)c(-c3cccc(OCc4ccc(Cl)c(F)c4F)n3)cc2F)nc2ccc(C(=O)O)cc21 [Example 488, (S)-2-(4-(6-((4-chloro-2,3-difluorobenzyl)oxy)pyridin-2-yl)-2,5-difluorobenzyl)-1-(4,4-dimethyltetrahydrofuran-3-yl)-1H-benzo[d]imidazole-6-carboxylic acid] | 0.282 nM
3 | CC1(C)COC[C@H]1n1c(Cc2cc(F)c(-c3cccc(OCc4c(F)cc(Cl)cc4F)n3)cc2F)nc2ccc(C(=O)O)cc21 [Example 489, (S)-2-(4-(6-((4-chloro-2,6-difluorobenzyl)oxy)pyridin-2-yl)-2,5-difluorobenzyl)-1-(4,4-dimethyltetrahydrofuran-3-yl)-1H-benzo[d]imidazole-6-carboxylic acid] | 0.342 nM
4 | CC1(C)COC[C@H]1n1c(Cc2cc(F)c(-c3ccc(F)c(OCc4cc(F)c(C#N)cc4F)n3)cc2F)nc2ccc(C(=O)O)cc21 [Example 491, (S)-2-(4-(6-((4-cyano-2,5-difluorobenzyl)oxy)-5-fluoropyridin-2-yl)-2,5-difluorobenzyl)-1-(4,4-dimethyltetrahydrofuran-3-yl)-1H-benzo[d]imidazole-6-carboxylic acid] | 0.079 nM
5 | CC1(C)COC[C@H]1n1c(Cc2cc(F)c(-c3cccc(OCc4ccc(C#N)c(F)c4F)n3)cc2F)nc2ccc(C(=O)O)cc21 [Example 492, (S)-2-(4-(6-((4-cyano-2,3-difluorobenzyl)oxy)pyridin-2-yl)-2,5-difluorobenzyl)-1-(4,4-dimethyltetrahydrofuran-3-yl)-1H-benzo[d]imidazole-6-carboxylic acid] | 0.191 nM
6 | CC1(C)COC[C@H]1n1c(Cc2cc(F)c(-c3cccc(OCc4c(F)cc(C#N)cc4F)n3)cc2F)nc2ccc(C(=O)O)cc21 [Example 493, (S)-2-(4-(6-((4-cyano-2,6-difluorobenzyl)oxy)pyridin-2-yl)-2,5-difluorobenzyl)-1-(4,4-dimethyltetrahydrofuran-3-yl)-1H-benzo[d]imidazole-6-carboxylic acid] | 0.278 nM
7 | C[C@H]1COC[C@H]1n1c(Cc2cc(F)c(-c3cccc(OCc4ccc(C#N)cc4F)n3)cc2F)nc2ccc(C(=O)O)cc21 [Example 494, 2-(4-(6-((4-cyano-2-fluorobenzyl)oxy)pyridin-2-yl)-2,5-difluorobenzyl)-1-((3S,4R)-4-methyltetrahydrofuran-3-yl)-1H-benzo[d]imidazole-6-carboxylic acid] | 0.051 nM
8 | CC1(C)COC[C@H]1n1c(Cc2cc(F)c(-c3ccc(F)c(OCc4ccc(C#N)cc4F)n3)cc2F)nc2ccc(C(=O)O)cc21 [Example 496, (S)-2-(4-(6-((4-cyano-2-fluorobenzyl)oxy)-5-fluoropyridin-2-yl)-2,5-difluorobenzyl)-1-(4,4-dimethyltetrahydrofuran-3-yl)-1H-benzo[d]imidazole-6-carboxylic acid] | 0.026 nM
9 | CC1(C)COC[C@H]1n1c(Cc2cc(F)c(-c3ccc(F)c(OCc4ccc(Cl)cc4F)n3)cc2F)nc2ccc(C(=O)O)cc21 [Example 497, (S)-2-(4-(6-((4-chloro-2-fluorobenzyl)oxy)-5-fluoropyridin-2-yl)-2,5-difluorobenzyl)-1-(4,4-dimethyltetrahydrofuran-3-yl)-1H-benzo[d]imidazole-6-carboxylic acid] | 0.206 nM
10 | COC(C)(C)C(C)n1c(Cc2cc(F)c(-c3cccc(OCc4ccc(Cl)cc4F)n3)cc2F)nc2ccc(C(=O)O)cc21 (stereo not drawn) [Example 507, 2-(4-(6-((4-chloro-2-fluorobenzyl)oxy)pyridin-2-yl)-2,5-difluorobenzyl)-1-(3-methoxy-3-methylbutan-2-yl)-1H-benzo[d]imidazole-6-carboxylic acid] | 0.351 nM
11 | CC1(C)COC[C@H]1n1c(Cc2cc(F)c(-c3cccc(OCc4ccc(Cl)cc4F)c3)cc2F)nc2ccc(C(=O)O)cc21 [Example 508, (S)-2-((3′-((4-chloro-2-fluorobenzyl)oxy)-2,5-difluoro-[1,1′-biphenyl]-4-yl)methyl)-1-(4,4-dimethyltetrahydrofuran-3-yl)-1H-benzo[d]imidazole-6-carboxylic acid] | 0.302 nM
12 | CC1(C)COC[C@H]1n1c(Cc2cc(F)c(-c3ccc(F)c(OCc4ccc(Cl)cc4F)c3)cc2F)nc2ccc(C(=O)O)cc21 [Example 509, (S)-2-((3′-((4-chloro-2-fluorobenzyl)oxy)-2,4′,5-trifluoro-[1,1′-biphenyl]-4-yl)methyl)-1-(4,4-dimethyltetrahydrofuran-3-yl)-1H-benzo[d]imidazole-6-carboxylic acid] | 0.144 nM
13 | COC(C)(C)Cn1c(Cc2cc(F)c(-c3cccc(OCc4ccc(Cl)cc4F)n3)cc2F)nc2ccc(C(=O)O)cc21 [Example 510, 2-(4-(6-((4-chloro-2-fluorobenzyl)oxy)pyridin-2-yl)-2,5-difluorobenzyl)-1-(2-methoxy-2-methylpropyl)-1H-benzo[d]imidazole-6-carboxylic acid] | 0.509 nM
14 | COCCn1c(Cc2cc(F)c(-c3cccc(OCc4ccc(C#N)cc4)n3)cc2F)nc2ccc(C(=O)O)cc21 [Example 511, 2-(4-(6-((4-cyanobenzyl)oxy)pyridin-2-yl)-2,5-difluorobenzyl)-1-(2-methoxyethyl)-1H-benzo[d]imidazole-6-carboxylic acid] | 0.588 nM
15 | Cn1nnc2cc(COc3cccc(-c4cc(F)c(Cc5nc6ccc(C(=O)O)cc6n5[C@@H]5COCC5(C)C)cc4F)n3)ccc21 [Example 512, (S)-2-(2,5-difluoro-4-(6-((1-methyl-1H-benzo[d][1,2,3]triazol-5-yl)methoxy)pyridin-2-yl)benzyl)-1-(4,4-dimethyltetrahydrofuran-3-yl)-1H-benzo[d]imidazole-6-carboxylic acid] | 0.515 nM

More lines, now with the values ahead:

Row | EC50 | SMILES
16 | 0.182 nM | CC1(C)COC[C@H]1n1c(Cc2cc(F)c(-c3cccc(OCc4cc(F)c(Cl)cc4F)n3)cc2F)nc2ccc(C(=O)O)cc21 [Example 490, (S)-2-(4-(6-((4-chloro-2,5-difluorobenzyl)oxy)pyridin-2-yl)-2,5-difluorobenzyl)-1-(4,4-dimethyltetrahydrofuran-3-yl)-1H-benzo[d]imidazole-6-carboxylic acid]
17 | 0.144 nM | CC1(C)COC[C@H]1n1c(Cc2cc(F)c(-c3ccc(F)c(OCc4ccc(Cl)cc4F)n3)cc2F)nc2c(F)cc(C(=O)O)cc21 [Example 495, (S)-2-(4-(6-((4-chloro-2-fluorobenzyl)oxy)-5-fluoropyridin-2-yl)-2,5-difluorobenzyl)-1-(4,4-dimethyltetrahydrofuran-3-yl)-4-fluoro-1H-benzo[d]imidazole-6-carboxylic acid]
18 | 0.508 nM | CC1(C)COC[C@H]1n1c(Cc2cc(F)c(-c3cccc(OCc4c(F)cc(C#N)cc4F)n3)cc2F)nc2c(F)cc(C(=O)O)cc21 [Example 498, (S)-2-(4-(6-((4-cyano-2,6-difluorobenzyl)oxy)pyridin-2-yl)-2,5-difluorobenzyl)-1-(4,4-dimethyltetrahydrofuran-3-yl)-4-fluoro-1H-benzo[d]imidazole-6-carboxylic acid]
19 | 0.508 nM | CC1(C)COCC1n1c(Cc2cc(F)c(-c3cccc(OCc4c(F)cc(Cl)cc4F)n3)cc2F)nc2c(F)cc(C(=O)O)cc21 (stereo not drawn) [Example 499, 2-(4-(6-((4-chloro-2,6-difluorobenzyl)oxy)pyridin-2-yl)-2,5-difluorobenzyl)-1-(4,4-dimethyltetrahydrofuran-3-yl)-4-fluoro-1H-benzo[d]imidazole-6-carboxylic acid]
20 | 0.203 nM | CC1(C)COC[C@H]1n1c(Cc2cc(F)c(-c3cccc(OCc4ccc(C#N)c(F)c4F)n3)cc2F)nc2c(F)cc(C(=O)O)cc21 [Example 500, (S)-2-(4-(6-((4-cyano-2,3-difluorobenzyl)oxy)pyridin-2-yl)-2,5-difluorobenzyl)-1-(4,4-dimethyltetrahydrofuran-3-yl)-4-fluoro-1H-benzo[d]imidazole-6-carboxylic Acid]
21 | 0.508 nM | CC1(C)COCC1n1c(Cc2cc(F)c(-c3cccc(OCc4cc(F)c(Cl)cc4F)n3)cc2F)nc2c(F)cc(C(=O)O)cc21 (stereo not drawn) [Example 501, 2-(4-(6-((4-chloro-2,5-difluorobenzyl)oxy)pyridin-2-yl)-2,5-difluorobenzyl)-1-(4,4-dimethyltetrahydrofuran-3-yl)-4-fluoro-1H-benzo[d]imidazole-6-carboxylic acid]
22 | 0.081 nM | CC1(C)COCC1n1c(Cc2cc(F)c(-c3ccc(F)c(OCc4ccc(C(F)(F)F)cc4F)n3)cc2F)nc2c(F)cc(C(=O)O)cc21 (stereo not drawn) [Example 503, 2-(2,5-difluoro-4-(5-fluoro-6-((2-fluoro-4-(trifluoromethyl)benzyl)oxy)pyridin-2-yl)benzyl)-1-(4,4-dimethyltetrahydrofuran-3-yl)-4-fluoro-1H-benzo[d]imidazole-6-carboxylic acid]
23 | 0.148 nM | CC1(C)COCC1n1c(Cc2cc(F)c(-c3ccnc(OCc4ccc(C(F)F)cc4F)n3)cc2F)nc2c(F)cc(C(=O)O)cc21 (stereo not drawn) [Example 504, 2-(4-(2-((4-(difluoromethyl)-2-fluorobenzyl)oxy)pyrimidin-4-yl)-2,5-difluorobenzyl)-1-(4,4-dimethyltetrahydrofuran-3-yl)-4-fluoro-1H-benzo[d]imidazole-6-carboxylic acid]
24 | 0.242 nM | CC1(C)COCC1n1c(Cc2cc(F)c(-c3cccc(OCc4ccc(C(F)F)cc4F)n3)cc2F)nc2c(F)cc(C(=O)O)cc21 (stereo not drawn) [Example 506, 2-(4-(6-((4-(difluoromethyl)-2-fluorobenzyl)oxy)pyridin-2-yl)-2,5-difluorobenzyl)-1-(4,4-dimethyltetrahydrofuran-3-yl)-4-fluoro-1H-benzo[d]imidazole-6-carboxylic acid]
